Patent publication US20260069571A1, “DDR1 AND DDR2 INHIBITORS FOR THE TREATEMENT OF CANCER AND FIBROTIC DISEASES” (REDX PHARMA PLC, priority 2021, published 2026)

What was measured:
Recombinant human DDR2 = Recombinant human DDR2 (Homo sapiens (Human), UniProt Q16832); test: LanthaScreen Eu Kinase Binding Assay, DDR2; details: DDR2 1.75 nM (aa427-855, GST tag), Kinase Tracer 178 10 nM; for IC50: read-out: DDR2 pIC50 (converted)
Summary of the method: (§1)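 GST-tagged kinase domains (DDR1 aa440-876 at 2.5 nM; DDR2 aa427-855 at 1.75 nM) were preincubated 30 min at room temperature with compound in HEPES pH 7.3 buffer. Then 1 nM Eu-anti-GST plus Tracer 178 (5 nM DDR1, 10 nM DDR2) were added; after 60 min, TR-FRET gave IC50 by four-parameter fit, ≥2 replicates.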

Recombinant human DDR1 = Recombinant human DDR1 (Homo sapiens (Human), UniProt Q08345); test: LanthaScreen Eu Kinase Binding Assay, DDR1; details: DDR1 2.5 nM (aa440-876, GST tag), Kinase Tracer 178 5 nM; for IC50: read-out: DDR1 pIC50 (converted)
Summary of the method: as §1

Recombinant human DDR1, sequence (Q08345 other isoform, or with tags, fused parts or gaps): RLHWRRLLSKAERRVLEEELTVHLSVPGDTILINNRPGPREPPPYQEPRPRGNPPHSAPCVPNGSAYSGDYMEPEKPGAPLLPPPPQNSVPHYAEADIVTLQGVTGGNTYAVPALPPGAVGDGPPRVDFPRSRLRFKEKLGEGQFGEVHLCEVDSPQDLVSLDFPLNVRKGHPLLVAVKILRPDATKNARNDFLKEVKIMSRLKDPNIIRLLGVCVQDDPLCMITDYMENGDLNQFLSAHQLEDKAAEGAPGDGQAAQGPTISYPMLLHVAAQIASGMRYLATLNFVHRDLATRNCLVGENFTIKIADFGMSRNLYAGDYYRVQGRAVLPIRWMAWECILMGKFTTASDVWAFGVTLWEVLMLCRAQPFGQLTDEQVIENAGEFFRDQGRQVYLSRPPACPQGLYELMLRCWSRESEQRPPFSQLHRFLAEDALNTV
Recombinant human DDR2, sequence (Q16832 427-855): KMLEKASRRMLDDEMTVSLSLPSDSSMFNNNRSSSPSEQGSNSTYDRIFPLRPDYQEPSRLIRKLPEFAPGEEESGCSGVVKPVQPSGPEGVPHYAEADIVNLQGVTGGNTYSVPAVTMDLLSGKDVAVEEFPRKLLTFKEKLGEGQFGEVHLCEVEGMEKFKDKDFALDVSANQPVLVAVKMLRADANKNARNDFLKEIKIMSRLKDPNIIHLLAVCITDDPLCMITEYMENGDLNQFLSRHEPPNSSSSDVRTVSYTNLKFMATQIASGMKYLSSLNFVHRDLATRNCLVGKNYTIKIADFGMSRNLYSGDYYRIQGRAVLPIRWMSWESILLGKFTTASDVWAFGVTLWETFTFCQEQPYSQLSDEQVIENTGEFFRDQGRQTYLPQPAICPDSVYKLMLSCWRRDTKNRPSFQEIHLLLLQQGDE

Row | SMILES | IC50 (Recombinant human DDR2) | DDR1 pIC50 (Recombinant human DDR1) | IC50 (Recombinant human DDR1) | DDR2 pIC50 (Recombinant human DDR2)
1 | Cn1ncc2cc(Nc3cccc4c3C(=O)N(CC(=O)N3CCC[C@H]3C(F)F)C4)cnc21 [Example 58, 7-[(1-methylpyrazolo[3,4-b]pyridin-5-yl)amino]-2-[2-oxo-2-[(2S)-(difluoromethyl)pyrrolidin-1-yl]ethyl]isoindolin-1-one] | 10 to 100 nM | A (pIC50>8) |  | 
2 | CN(c1cnc2[nH]ncc2c1)c1cccc2c1C(=O)N(CC(=O)N1CCC[C@H]1C(F)(F)F)C2 [Example 88, 7-[methyl(1H-pyrazolo[3,4-b]pyridin-5-yl)amino]-2-[2-oxo-2-[(2S)-(trifluoromethyl)pyrrolidin-1-yl]ethyl]isoindolin-1-one] | 10 to 100 nM |  | 10 to 100 nM | 
3 | Cn1ncc2cc(Nc3cccc4c3C(=O)N(CC(=O)NCC(F)(F)F)C4)cnc21 [Example 9, 2-[7-[(1-methylpyrazolo[3,4-b]pyridin-5-yl)amino]-1-oxo-isoindolin-2-yl]-N-(2,2,2-trifluoroethyl)acetamide] | 100 to 1000 nM |  | 10 to 100 nM | 
4 | Cc1nn(C)c2ncc(Nc3cccc4c3C(=O)N(CC(=O)NCC(F)(F)F)C4)cc12 [Example 101, 2-[7-[(1,3-dimethylpyrazolo[3,4-b]pyridin-5-yl)amino]-1-oxo-isoindolin-2-yl]-N-(2,2,2-trifluoroethyl)acetamide] |  | D (pIC50≤6) |  | D (pIC50≤6)
5 | Cn1ncc2nc(Nc3cccc4c3C(=O)N(CC(=O)N3CCC[C@H]3C(F)(F)F)C4)ccc21 [Example 85, 7-[(1-methylpyrazolo[4,3-b]pyridin-5-yl)amino]-2-[2-oxo-2-[(2S)-(trifluoromethyl)pyrrolidin-1-yl]ethyl]isoindolin-1-one] | 10 to 100 nM |  | 10 to 100 nM | 
6 | C[C@H](NC(=O)CN1Cc2cccc(Nc3cnc4c(cnn4C)c3)c2C1=O)C(F)(F)F [Example 53, 2-[7-[(1-methylpyrazolo[3,4-b]pyridin-5-yl)amino]-1-oxo-isoindolin-2-yl]-N-[(1S)-2,2,2-trifluoro-1-methyl-ethyl]acetamide] | 10 to 100 nM | A (pIC50>8) |  | 
7 | Cn1ncc2cc(Nc3cccc4c3C(=O)N(CC(=O)N3CCC[C@H]3C(F)(F)F)C4)ccc21 [Example 3, 7-[(1-Methylindazol-5-yl)amino]-2-[2-oxo-2-[(2S)-2-(trifluoromethyl)pyrrolidin-1-yl]ethyl]isoindolin-1-one] | < 10 nM |  | < 10 nM | 
8 | Cc1n[nH]c2cc(Nc3cccc4c3C(=O)N(CC(=O)N[C@@H](C)C(F)(F)F)C4)ccc12 [Example 28, 2-[7-[(3-methyl-1H-indazol-6-yl)amino]-1-oxo-isoindolin-2-yl]-N-[(1S)-2,2,2-trifluoro-1-methyl-ethyl]acetamide] |  | A (pIC50>8) |  | A (pIC50>8)
9 | C[C@H](N(C)C(=O)CN1Cc2cccc(Nc3cnc4[nH]ncc4c3)c2C1=O)C(F)(F)F [Example 77, N-methyl-2-[1-oxo-7-(1H-pyrazolo[3,4-b]pyridin-5-ylamino)isoindolin-2-yl]-N-[(1S)-2,2,2-trifluoro-1-methyl-ethyl]acetamide] | 10 to 100 nM |  | 10 to 100 nM | 
10 | Cc1n[nH]c2cc(Nc3cccc4c3C(=O)N(CC(=O)N[C@@H](C)C(F)(F)F)C4)cc(F)c12 [Example 63, 2-[7-[(4-fluoro-3-methyl-1H-indazol-6-yl)amino]-1-oxo-isoindolin-2-yl]-N-[(1S)-2,2,2-trifluoro-1-methyl-ethyl]acetamide] |  | A (pIC50>8) |  | A (pIC50>8)
11 | Cn1ncc2cc(Nc3cccc4c3C(=O)N(CC(=O)N3CCOC[C@@H]3C(F)(F)F)C4)ccc21 [Example 45, 7-[(1-methylindazol-5-yl)amino]-2-[2-oxo-2-[(3R)-(trifluoromethyl)morpholin-4-yl]ethyl]isoindolin-1-one] | 10 to 100 nM |  | < 10 nM | 
12 | O=C(CN1Cc2cccc(Nc3ccc4cn[nH]c4c3)c2C1=O)NCC(F)(F)F [Example 81, 2-[7-(1H-indazol-6-ylamino)-1-oxo-isoindolin-2-yl]-N-(2,2,2-trifluoroethyl)acetamide] | 100 to 1000 nM |  | 10 to 100 nM | 
